Patent publication US20230068414A1, “Herbicide combinations comprising glufosinate and trifludimoxazin” (BASF SE, priority 2020, published 2023)

Assays:
[1] = test system: Abutilon theophrasti (ABUTH); experiment: Greenhouse postemergence weed control, percent injury vs untreated control; type: in vivo
Text: (§1) For post-emergence treatments, glufosinate and trifludimoxazin, which had been suspended in water, were applied using spray nozzles providing fine to coarse droplets.
(§2) The herbicide compounds applied in the examples were used as experimental or commercially available solo or premix formulations which have been diluted with tap water to a suitable concentration. Glufosinate was used as a commercial SL formulation containing 280 g ai/l of glufosinate (Liberty 280 SL, BASF). While the PPO herbicide Vulcarus containing 500 g ai/l trifludimoxazin was used (Vulcarus 500 SC, BASF) formulation.
(§3) The evaluation for plant injury or damage caused by the chemical compositions was carried out using a scale from 0-100% when compared with the untreated control plants. Here, 0 means no damage and 100 means complete destruction of the plants.
(§4) 22., E=X+Y−(X*Y/100), where
(§5) X=effect in percent using herbicide A at an application rate of a;
(§6) Y=effect in percent using herbicide B at an application rate of b;
(§7) E=expected effect (in %) of A+B at application rates a+b.
(§8) The value E corresponds to the effect (plant damage or injury) which is to be expected if the activity of the individual compounds is just additive. If the observed effect is higher than the value E calculated according to Colby, a synergistic effect is present.
(§9) Weed Control of Glufosinate Plus Trifludimoxazin Mixtures (Greenhouse) Seedlings of velvetleaf (Abutilon theophrasti; ABUTH) and Palmer amaranth (Amaranthus palmeri; AMAPA were treated with postemergence applications of either glufosinate at 246 g ai/ha, trifludimoxazin at 6.25 g ai/ha, or the combination of glufosinate (246 g ai/ha) and trifludimoxazin (6.25 g ai/ha), respectively, when they were 5-10 cm in height. All glufosinate treatments contained 1% (w/v) ammonium sulfate and solo trifludimoxazin treatments contained 1% (w/v) ammonium sulfate plus 1% (v/v) MSO surfactant. Plants were placed in a completely randomized design with four replications per treatment. Percent injury data was collected 21 days after treatment (DAT).

[2] = test system: Amaranthus palmeri (AMAPA); experiment: as above; type: in vivo
Text: as §1, §2, §3, §4, §5, §6, §7, §8, §9

Compound	inhibition at 246 g/ha ([1]; Abutilon theophrasti, post-emergence, 504 h, read-out: Solo Glufosinate (246 g ai/ha) % activity)	inhibition at 246 g/ha ([2]; Amaranthus palmeri, post-emergence, 504 h, read-out: Solo Glufosinate (246 g ai/ha) % activity)	Solo Trifludimoxazin (6.25 g ai/ha) % activity ([1]; ABUTH seedlings 5-10 cm, postemergence, 6.25 g ai/ha, 1% ammonium sulfate plus 1% MSO, 21 DAT)	Solo Trifludimoxazin (6.25 g ai/ha) % activity ([2]; AMAPA seedlings 5-10 cm, postemergence, 6.25 g ai/ha, 1% ammonium sulfate plus 1% MSO, 21 DAT)
CP(=O)(O)CCC(N)C(=O)O (racemic) [Glufosinate, (2RS)-2-amino-4-[hydroxy(methyl)phosphinoyl]butyric acid]	23%	48%		
C#CCN1C(=O)C(F)(F)Oc2cc(F)c(-n3c(=O)n(C)c(=S)n(C)c3=O)cc21 [Trifludimoxazin]			70%	63%
